Data as given in US8519004B2 (Repros Therapeutics Inc., priority 2005, dated 2013).
Where a name gives a salt, the structure may show the parent alone.

Key:
serum cholesterol = assay: Serum cholesterol in male baboons; type: in vivo; details: 1.5 mg/kg for 12 days
Source text: (§1) The samples analyzed were sera taken on the day of first treatment before being given test article (day 0), after 12 days of treatment (day 12) and 7 days after the last treatment (end or wash-out).

[1] = Clinical chemistry and hematology parameters in male baboons; type: in vivo; details: for serum glucose: change with treatment; for ALT/SGPT: changes over the treatment period / end of the study; for serum carbon dioxide: day 12; for serum anion gap: day 12 and washout; for BUN and BUN/creatinine: during the study
Source text: as §1

serum testosterone = assay: Serum testosterone in male baboons given Clomid, Enclomid or Zuclomid; type: in vivo; details: between day 12 and day 18 (washout)
Source text: as §1

serum LH and FSH = details: during treatment
Procedure: (§2) Half of the men in each of the Androxal™ and placebo arms were randomized into cohorts that underwent in-clinic sessions on days 1 and 14 to determine pharmacokinetic parameters for Androxal™ as well as cyclical changes in testosterone. The placebo and Androxal™ doses were administered in a double blind fashion. The Androgel® cream was administered in an open label fashion. Half of the Androgel® patients underwent in-clinic sessions similar to the other patients in the study. Following the two week drug exposure patients were followed for an additional seven to ten days to determine the status of their testosterone levels.

[2] = 50 mg dose; placebo group ratio 1.07
Procedure: as §2

[3] = following a single dose; cited from earlier work

Procedure for serum total testosterone: as §2

CCN(CC)CCOc1ccc(C(=C(Cl)c2ccccc2)c2ccccc2)cc1 [Clomid, clomiphene citrate]
increase in serum cholesterol levels (serum cholesterol): slight increase | serum glucose [1]: within the normal range | ALT/SGPT [1]: out of range low | serum carbon dioxide [1]: higher than reference values | serum anion gap [1]: lower values than the Enclomid group | BUN and BUN/creatinine [1]: altered

CCN(CC)CCOc1ccc(/C(=C(\Cl)c2ccccc2)c2ccccc2)cc1 [Enclomid, trans-clomiphene]
change in total serum testosterone after cessation of treatment (serum testosterone): significant drop in the level of total serum testosterone | serum total testosterone in the follow-up period (serum total testosterone; 7-10 days after cessation of daily oral treatment): remained high | changes in testosterone from baseline testosterone levels (serum total testosterone; all doses): statistically significant changes in testosterone | serum total testosterone in follow-up, highest dose compared to the high dose of AndroGel 1% (serum total testosterone; follow-up period, p=0.017, t-test): significantly higher | serum levels of FSH (serum LH and FSH): statistically increase | serum levels of LH (serum LH and FSH): statistically significant increase | DHT/TT ratio [2]: 0.83 | eosinophil count ([1]; 1.5 mg/kg for 12 days): raising the counts of lymphocytes and eosinophiles | lymphocyte count ([1]; 1.5 mg/kg for 12 days): increase in lymphocyte count | red blood cell population ([1]; 1.5 mg/kg for 12 days): substantive effects on the red blood cell population | serum creatinine ([1]; between day 0 and Day 12): no differences between serum creatinine values | ALT/SGPT [1]: within the normal range | serum anion gap [1]: raised this parameter towards normal values | BUN and BUN/creatinine [1]: altered | percent of granulocytes in the blood ([1]; very strong after the 7-day washout period): lowering the percent of granulocytes in the blood

CCN(CC)CCOc1ccc(/C(=C(/Cl)c2ccccc2)c2ccccc2)cc1 [Zuclomid, cis-clomiphene]
duration of residual blood levels [3]: in excess of one month | red blood cell population ([1]; 1.5 mg/kg for 12 days): substantive effects on the red blood cell population | serum glucose [1]: within the normal range | ALT/SGPT [1]: within the normal range | serum carbon dioxide [1]: higher than reference values | serum anion gap [1]: lower values than the Enclomid group
